Test results taken from article PMC5384453, “A multi-functional PEGylated gold(III) compound: potent anti-cancer properties and self-assembly into nanostructures for drug co-delivery” (Chemical Science, 2016).

Columns and labels:
HCT116 xenografts = test: In vivo inhibition of tumor growth in nude mice bearing HCT116 xenograft; conditions: for reduction of tumor volume / reduction of tumor weight: n = 8
From the text: The anti-tumor experiments using mice were approved by the animal ethics committees of Jinan University and The University of Hong Kong.
Significant pulmonary hemorrhage in the alveoli and a thickening of alveolar walls were found. Also, apoptotic hepatocytes and swollen renal epithelial cells were found, leading to subsequent shrinkage of kidney tubules. […] The lower systemic toxicity of 1 can be explained by the lower accumulation of 1 in the organs of mice treated at its effective dosage, as compared to that of 3 and Au1a (Fig. S23 ^†). […] This can be attributable to the nanostructures of 1, which may lead to in vivo tumor accumulation by the EPR effect.[55] […]
atmosphere of 5% CO2. […]
right fore of BALB/c nude mice. When the tumor volume reached 70 mm3 after […]
every 2 days for 24 days. The control group received equal volume of PBS only.
During the treatment period, the tumor volume and body weight of the nude mice were measured per two days. The tumor volume was calculated by the equation:
Volume (mm3) = l×w2/2, where l and w were the length and width of the tumor. At the end of the treatment, the nude mice were sacrificed and the tumor weight was […]
H&E staining and immunohistochemical (IHC) analysis of mice tissues. For histological and immunohistochemical analysis, the tissues were fixed with 3.7% formaldehyde, embedded with paraffin and sectioned. Subsequently, the tissues were stained with hematoxylin and eosin for histological observation under an optical microscope (magnification: 10×). The expression of p53, Ki67, VEGFR2 and TUNEL was determined by IHC methods as reported previously. S7
Hematological analysis of nude mice bearing HCT116 xenograft. The blood samples of mice without bearing HCT116 xenograft and xenograft-bearing mice treated with 1, 3 and PBS control were collected. The plasma was obtained by centrifuging the blood sample with speed at 3000 rpm. The plasma was then subjected to hematological analysis to determine biochemical indexes of alanine aminotransferase (ALT), asparatate aminotransferase (AST), globulin (GLB), blood urea nitrogen (BUN), uric acid (UA), creatinine (CREA), lactate dehydrogenase (LDH) and creatine kinase (CK) in blood of the mice. […]

HCT116 cells [1] = test: Time-dependent induction of apoptosis, Caspase-3/7 Green ReadyProbes fluorescence microscopy; type: cell-based, human; conditions: HCT116, 2 μM, Caspase-3/7 Green Reagent
Procedure: B from 20.1 to 25 min and returned to initial conditions and equilibrated for 3 minutes.
The flow rate was 0.4 mL/min and the injection volume was 2 µL. The UPLC-QTOF-MS chromatograms of 1, 3, 4 and solvent control in acetonitrile were also recorded for the interpretation of UPLC-QTOF-MS chromatograms of the cell lysate.
Cellular uptake experiments. HCT116, A2780 and A2780adr (2×10 5 cells), and MIHA and NCM460 (3.5×10 5 cells) cells were grown on 6-well plates at 37 °C under an atmosphere of 5% CO2 for 48 h. The culture medium was then removed, washed with PBS solution, and incubated with culture medium containing nanostructures of 1 […]
Au1a (2 µM; with 1 vol% DMSO). At a predetermined time, the culture medium was removed and washed with PBS solution for three times. The cells were then harvested and dispersed in ice-cold water. An aliquot of the cell suspension was subjected to Bio-rad protein assay with a microtitre plate reader at the absorbance at 595 nm, using bovine serum albumin as the protein standard. […] The solution mixture was heated at 65 °C with shaking overnight, and the gold content was determined by ICP-MS. […]
then removed and washed with PBS solution. The cells were then incubated with culture medium containing nanostructures of 1 (2 µM) and CellEvent Caspase-3/7 Green ReadyProbes Reagent (30 µL), or Au1a (2 µM; with 1 vol% DMSO) and CellEvent Caspase-3/7 Green ReadyProbes Reagent (30 µL) at 37 °C under an atmosphere of 5% CO2. Fluorescence images at different time intervals were recorded by the fluorescence microscope without washing the cells. […]
once every 2–3 days. The tumor volume was calculated by the equation: Volume (mm3) = l×w2/2, where l and w were the length and width of the tumor. At the end of the treatment, the nude mice were sacrificed and the tumor weight was measured. […]
At a predetermined time, the culture medium was removed and washed with PBS solution for three times. […] An aliquot of the cell suspension was subjected to Bio-rad protein assay with a microtitre plate reader at the absorbance at 595 nm, using bovine serum albumin as the protein standard. […]

HCT116 cells [2] = test: FITC-Annexin V staining and flow cytometry; type: cell-based, human; conditions: HCT116, 2 μM, 24 h
Procedure: (§1) The induction of apoptosis of HCT116 and NCM460 cells by 1 was further studied using FITC-Annexin V staining. […] The quantity of apoptotic cells stained by FITC-Annexin V after treatment with 1 or Au1a was also investigated by flow cytometry. […]
(§2) with gold(III) complexes and FITC-annexin V staining. HCT116 (1×10 5 cells) and […]
(§3) annexin-binding buffer solution. The cells were then incubated with FITC-annexin V […]
(§4) at room temperature in dark for 15 min. The solution was then removed, and the cells were washed with annexin-binding buffer solution. Fluorescence images were then […]
(§5) in ice and analyzed by flow cytometry immediately. […]
(§6) staining and flow cytometry.

NCM460 cells = test: FITC-Annexin V staining and flow cytometry; type: cell-based, human; conditions: NCM460, 2 μM, 24 h
Procedure: as §1, §2, §3, §4, §5, §6

[3] = 2 mg kg^–1, intravenous injection every two days for 24 days
[4] = 4 mg kg^–1, intravenous injection every two days for 24 days

[Au(TPP–COO–PEG5000–OCH3)]Cl [Compound 1]
reduction of tumor volume (HCT116 xenografts; [3]): 41%
reduction of tumor weight (HCT116 xenografts; [3]): 35%
reduction of tumor volume (HCT116 xenografts; [4]): 58%
reduction of tumor weight (HCT116 xenografts; [4]): 53%
nuclear atypia and mitosis in tumor sections (immunohistochemical analysis) (HCT116 xenografts; 4 mg kg^–1 i.v., 24 days): Effective elimination of nuclear atypia and mitosis were observed
incubation time at which induction of apoptosis was apparent (HCT116 cells [1]): 15 h
percent of apoptotic cells (FITC-Annexin V, background corrected) (HCT116 cells [2]): 22.5%
percent of apoptotic cells (FITC-Annexin V, background corrected) (NCM460 cells): 2.4%

COC(=O)c1ccc(C2=C3C=CC(=N3)C(c3ccccc3)=c3ccc4[n]3[Au+][n]3c(ccc32)C(c2ccccc2)=C2C=CC(=N2)C=4c2ccccc2)cc1.[Cl-] [Compound 3, [Au(TPP–COOCH3)]^+]
reduction of tumor volume (HCT116 xenografts; [4]): 56%
reduction of tumor weight (HCT116 xenografts; [4]): 49%

C1=Cc2nc1c(-c1ccccc1)c1ccc([n-]1)c(-c1ccccc1)c1nc(c(-c3ccccc3)c3ccc([n-]3)c2-c2ccccc2)C=C1.[Au+3].[Cl-] [Au1a, [Au(TPP)]Cl, reference compound]
incubation time at which induction of apoptosis was apparent (HCT116 cells [1]): 12 h
percent of apoptotic cells (FITC-Annexin V, background corrected) (HCT116 cells [2]): 39.6%
percent of apoptotic cells (FITC-Annexin V, background corrected) (NCM460 cells): 39.3%
